Test results published in patent US6610883B1, “Compounds having selective activity for retinoid X receptors, and means for modulation of processes mediated by retinoid X receptors” (Ligand Pharmaceuticals, Inc., priority 1992, dated 2003).
Like-named read-outs stand apart in the source and are kept apart here.

Experiments:
Assay type in all cases: cell-based
RXRα = molecular target: T1, RXRα (Homo sapiens, UniProt P19793); test: Co-transfection (cis-trans) assay in CV-1 cells, RXRα; design: Emax: dose or concentration left out as unconfirmed; details: for Emax at 10 µM: CV-1, maximal response relative to all-trans-retinoic acid at 10^−5 M, read-out: Efficacy
T1 construct: The first plasmid contains a retinoid receptor cDNA and directs constitutive expression of the encoded receptor; expressed in transfected cells; host or cells: CV-1 (monkey kidney)
T1 sequence (P19793 1-462): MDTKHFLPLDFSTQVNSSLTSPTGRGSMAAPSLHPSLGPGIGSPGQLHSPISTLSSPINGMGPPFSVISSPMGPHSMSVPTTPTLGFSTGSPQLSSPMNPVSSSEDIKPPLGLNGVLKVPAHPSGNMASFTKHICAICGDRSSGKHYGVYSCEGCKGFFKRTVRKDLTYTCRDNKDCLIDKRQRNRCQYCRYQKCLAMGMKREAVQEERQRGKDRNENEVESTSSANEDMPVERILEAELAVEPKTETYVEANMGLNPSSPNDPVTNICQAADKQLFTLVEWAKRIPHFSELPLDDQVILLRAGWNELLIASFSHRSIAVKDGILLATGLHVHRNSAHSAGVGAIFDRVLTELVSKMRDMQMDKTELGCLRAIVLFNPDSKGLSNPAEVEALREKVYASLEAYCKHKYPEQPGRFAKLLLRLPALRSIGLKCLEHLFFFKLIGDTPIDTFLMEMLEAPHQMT
Text: (§1) The co-transfection assay provides a mechanism to evaluate the ability of a compound to modulate the transcription response initiated by an intracellular receptor. […] Berger, et al., J. Steroid Biochem Molec.
(§2) Briefly, the co-transfection assay involves the introduction of two plasmids by transient transfection into a retinoid receptor-negative mammalian cell background. The first plasmid contains a retinoid receptor cDNA and directs constitutive expression of the encoded receptor. The second plasmid contains a cDNA that encodes for a readily quantifiable protein, e.g., firefly luciferase or chloramphenicol acetyl transferase (CAT), under control of a promoter containing a retinoid acid response element, which confers retinoid dependence on the transcription of the reporter. In this co-transfection assay, all retinoid receptors respond to all-trans-retinoic acid in a similar fashion. This assay can be used to accurately measure efficacy and potency of retinoic acid and synthetic retinoids as ligands that interact with the individual retinoid receptor subtypes.
(§3) Accordingly, synthetic retinoid compounds of the current invention were evaluated for their interaction with retinoid receptor subtypes using the co-transfection assay in which CV-1 cells were co-transfected with one of the retinoid receptor subtypes, a reporter construct, and an internal control to allow normalization of the response for transfection efficiency. The following example is illustrative.
(§4) Retinoids: All-tans-retinoic acid (RA) and 13-cis-retinoic acid (13-cis-RA) were obtained from Sigma. […] Retinoids were dissolved in dimethylsulfoxide for use in the transcriptional activation assays.
(§5) Co-transfection Assay In CV-1 Cells: A monkey kidney cell line, CV-1, was used in the cis-trans assay. Cells were transfected with two plasmids. […] The cis-vector contains an easily assayable gene product, in this case the firefly luciferase, coupled to a retinoid-responsive promoter, i.e., an RARE or RXRE. Addition of retinoic acid or an appropriate synthetic retinoid results in the formation of a retinoid-RAR or -RXR complex that activates the expression of luciferase gene, causing light to be emitted from cell extracts. The level of luciferase activity is directly proportional to the effectiveness of the retinoid-receptor complex in activating gene expression. This sensitive and reproducible co-transfection approach permits the identification of retinoids that interact with the different receptor isoforms.
(§6) Cells were cultured in DMEM supplemented with 10% charcoal resin-stripped fetal bovine serum, and experiments were conducted in 96-well plates. […] Cells were transfected for 6 h and then washed to remove the precipitate. The cells were then incubated for 36 h with or without retinoid. After the transfection, all subsequent steps were performed on a Beckman Biomek Automated Workstation. […] All determinations were performed in triplicate in two independent experiments and were normalized for transfection efficiency by using β-galactosidase as the internal control. […] Efficacy values less than 5% are not statistically different than the 0% background.

RXRβ = molecular target: T2, RXRβ (Mus musculus, UniProt P28704); test: Co-transfection (cis-trans) assay in CV-1 cells, RXRβ; details: for Emax at 10 µM: CV-1, maximal response relative to all-trans-retinoic acid at 10^−5 M, read-out: Efficacy
T2 construct: expressed in transfected cells; host or cells: CV-1 (monkey kidney)
T2 sequence (P28704 1-520): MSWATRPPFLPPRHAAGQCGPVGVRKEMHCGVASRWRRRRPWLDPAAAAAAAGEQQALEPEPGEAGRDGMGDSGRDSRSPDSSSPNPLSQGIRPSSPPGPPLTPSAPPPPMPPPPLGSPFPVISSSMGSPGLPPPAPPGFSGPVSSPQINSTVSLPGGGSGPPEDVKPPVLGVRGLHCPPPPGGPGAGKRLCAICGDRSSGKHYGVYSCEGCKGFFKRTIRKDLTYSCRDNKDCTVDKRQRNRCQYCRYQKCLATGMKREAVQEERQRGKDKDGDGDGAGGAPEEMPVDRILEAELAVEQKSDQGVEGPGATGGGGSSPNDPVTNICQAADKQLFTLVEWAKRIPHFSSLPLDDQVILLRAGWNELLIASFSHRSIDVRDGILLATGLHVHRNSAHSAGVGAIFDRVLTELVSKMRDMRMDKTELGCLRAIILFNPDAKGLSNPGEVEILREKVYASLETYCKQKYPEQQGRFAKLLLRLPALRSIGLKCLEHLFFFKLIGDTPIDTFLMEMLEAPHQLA
Text: as §1, §2, §3, §4, §5, §6

RARγ = molecular target: T3, RARγ (Homo sapiens, UniProt P13631); test: Co-transfection (cis-trans) assay in CV-1 cells, RARγ; design: expressed in transfected cells; host or cells: CV-1 (monkey kidney); details: for Emax at 10 µM: CV-1, maximal response relative to all-trans-retinoic acid at 10^−5 M, read-out: Efficacy; for EC50: CV-1 cells, luciferase reporter, 36 h, read-out: Potency
T3 sequence (P13631 1-454): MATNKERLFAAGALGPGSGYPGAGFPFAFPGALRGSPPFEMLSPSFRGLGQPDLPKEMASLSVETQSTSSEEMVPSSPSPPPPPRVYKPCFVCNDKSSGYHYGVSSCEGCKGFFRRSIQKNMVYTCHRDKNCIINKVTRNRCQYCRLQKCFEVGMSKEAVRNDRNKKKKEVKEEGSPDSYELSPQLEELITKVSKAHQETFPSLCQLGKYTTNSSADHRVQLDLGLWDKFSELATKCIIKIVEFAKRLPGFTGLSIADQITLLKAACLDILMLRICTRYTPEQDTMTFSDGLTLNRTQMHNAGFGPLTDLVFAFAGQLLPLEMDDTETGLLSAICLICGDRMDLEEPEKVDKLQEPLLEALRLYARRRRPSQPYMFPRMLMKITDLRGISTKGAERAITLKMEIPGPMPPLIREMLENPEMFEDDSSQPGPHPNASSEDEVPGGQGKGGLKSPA
Text: as §1, §2, §3, §4, §5, §6

[1] = RXRα, CV-1 cells, luciferase reporter, 36 h, read-out: Potency
[2] = RXRβ, CV-1 cells, luciferase reporter, 36 h, read-out: Potency

Compound | Emax at 10 µM (RXRα; RXRα) [%] | EC50 (RXRα; [1]) [nM] | Emax at 10 µM (RXRβ; RXRβ) [%] | EC50 (RXRβ; [2]) [nM] | Emax at 10 µM (RARγ) [%] | EC50 (RARγ) [nM] | EC50 (RXRα) [nM] | Emax (RXRα; CV-1, read-out: Efficacy) [%] | EC50 (RXRβ) [nM]
Cc1cc2c(cc1C(=O)c1ccc(C(=O)Nc3ccc(O)cc3)cc1)C(C)(C)CCC2(C)C [3-Methyl-TTNCHBP, 4-[(3,5,5,8,8-pentamethyl-5,6,7,8-tetrahydro-2-naphthyl)carbonyl]-N-(4-hydroxyphenyl)benzamide] | 113 | 1100 | 155 | 1100 | 17 | > 10000 |  |  | 
C=C(c1ccc(C(=O)Nc2ccc(O)cc2)cc1)c1cc2c(cc1C)C(C)(C)CCC2(C)C [3-Methyl-TTNEHBP (63), 4-[1-(3,5,5,8,8-pentamethyl-5,6,7,8-tetrahydro-2-naphthyl)ethenyl]-N-(4-hydroxyphenyl)benzamide] | 125 | 140 | 121 | 71 | 10 | > 10000 |  |  | 
C/C(=C/C=C/C(C)=C/C(=O)O)c1cc2c(cc1C)C(C)(C)CCC2(C)C [Compound 128, (2E,4E,6Z)-7-(3,5,5,8,8-pentamethyl-5,6,7,8-tetrahydro-2-naphthyl)-3-methyl-octa-2,4,6-trienoic acid] | 108 | 11 | 154 | 22 | 37 | 309 |  |  | 
CC1=C(/C=C/C2(C/C=C/C(C)=C/C(=O)O)CC2)C(C)(C)CCC1 [Compound 110] | 79 | 85 | 73 | 70 | 37 | 1770 |  |  | 
CCCC(=C/C=C/C(C)=C/C(=O)O)/C=C/C1=C(C)CCCC1(C)C [Compound 74, 3-methyl-7-propyl-9-(2,6,6-trimethyl-1-cyclohexen-1-yl)-2E,4E,6Z,8E-nonatetranoic acid] | 78 | 11 | 91 | 6 | 61 | 37 |  |  | 
CC1=C(/C=C/C(=C\C=C\C(C)=C\C(=O)O)C(C)C)C(C)(C)CCC1 [Compound 75, 3-methyl-7-isopropyl-9-(2,6,6-trimethyl-1-cyclohexen-1-yl)-2E,4E,6Z,8E-nonatetranoic acid] | 100 | 21 | 142 | 18 | 119 | 150 |  |  | 
C=C(c1ccc(C(=O)O)cc1)c1cc2c(cc1Br)C(C)(C)CCC2(C)C [3-Bromo-TTNEB, 4-[1-(3-bromo-5,5,8,8-tetramethyl-5,6,7,8-tetrahydro-2-naphthyl)ethenyl]benzoic acid] |  |  |  |  | 15 |  | 64 | 88 | 54

Continued by falling EC50 (RXRα; [1]), values first:

Emax at 10 µM (RXRα; RXRα) [%] | EC50 (RXRα; [1]) [nM] | Emax at 10 µM (RXRβ; RXRβ) [%] | EC50 (RXRβ; [2]) [nM] | Emax at 10 µM (RARγ) [%] | EC50 (RARγ) [nM] | Compound | EC50 (RXRα) [nM] | Emax (RXRα; CV-1, read-out: Efficacy) [%] | EC50 (RXRβ) [nM]
63 | 123 | 54 | 71 | 4 | > 10000 | CC1=C(C=CC2CCCCC2/C=C/C(C)=C/C(=O)O)C(C)(C)CCC1 (stereo not shown) [Compound 100, 3-methyl-5-(2-[2-(2,6,6-trimethylcyclohexen-1-yl)ethenyl]cyclohexyl)-2E,4E-pentadienoic acid] |  |  | 
90 | 24 | 105 | 21 | 49 | 283 | CC(/C=C/C=C(\c1ccc2c(c1)C(C)(C)CCC2(C)C)C(C)C)=C\C(=O)O [Compound 123, (2E,4E,6Z)-7-(5,5,8,8-tetramethyl-5,6,7,8-tetrahydro-2-naphthyl)-3,8-dimethyl-nona-2,4,6-trienoic acid] |  |  | 
75 | 16 | 99 | 11 | 44 | 170 | CC1=C(/C=C/C(=C\C=C\C(C)=C\C(=O)O)C(C)(C)C)C(C)(C)CCC1 [Compound 77, 3-methyl-7-t-butyl-9-(2,6,6-trimethyl-1-cyclohexen-1-yl)-2E,4E,6Z,8E-nonatetranoic acid] |  |  | 
75 | 5 | 133 | 13 | 28 | 144 | CC(/C=C/C1(c2cc3c(cc2C)C(C)(C)CCC3(C)C)CC1)=C\C(=O)O [Compound 104, (2E,4E)-3-methyl-5-[1-(3,5,5,8,8-pentamethyl-5,6,7,8-tetrahydro-2-naphthyl)cyclopropyl]penta-2,4-dienoic acid] |  |  | 
